Experimental data as given in patent US20210361683A1, “COMPOSITIONS AND METHODS FOR THE TREATMENT OF MUSCLE CONTRACTURES” (Children's Hospital Medical Center, priority 2018, published 2021).
Entries after “also recorded” stand apart in the source; their conditions may differ.

Assays:
[1] = tested on: brachialis muscle after NBPI; experiment: Brachialis sarcomere length (muscle length) 4 weeks post-NBPI; assay type: in vivo, mice; settings: 0.3 mg/kg, P8 to P33
Description: Sarcomere lengths were measured from single muscle fibers, acquiring 6 images per fiber by differential interference contrast (DIC) microscopy on a Nikon Eclipse Ti-E inverted microscope with the Plan Apo λ40× objective (Nikon Instruments), Xyla 4.2 megapixel, 16-bit sCMOS monochromatic camera (Andor/Oxford Instruments) and NIS-Elements imaging software (Nikon Instruments). A series of 10 sarcomeres were measured per image in AxioVision software and an average sarcomere length was then determined for each fiber.
Mouse limbs harvested 4 weeks post-NBPI were processed on cork at 90° elbow flexion (confirmed by digital x-ray) prior to fixation in 10% NBF as described previously^16. […]
Mice were treated either with saline (as the vehicle; 0.9% Sodium Chloride Injection USP, Hospira), [Gly^14]-Humanin G ([Gly14]-HN; 1 μg/dose; H6161, Sigma-Aldrich) alone or co-administered with Bortezomib (0.2-0.4 mg/kg body weight; 5043140001, Sigma-Aldrich) by IP injection starting immediately post-operative or delayed by 3/7 days (P8/12 start), and injected every other day with sacrifice at 4 weeks post-NBPI (24 h following the last IP injection). […] Deficits in motor function were confirmed as described above, and measurement of shoulder and elbow range of motion was measured immediately post-sacrifice^16 with blinding to the treatment group. […]

[2] = Survival / mortality of NBPI mice during treatment; assay type: in vivo
Description: (§1) Mice were treated either with saline (as the vehicle; 0.9% Sodium Chloride Injection USP, Hospira), [Gly^14]-Humanin G ([Gly14]-HN; 1 μg/dose; H6161, Sigma-Aldrich) alone or co-administered with Bortezomib (0.2-0.4 mg/kg body weight; 5043140001, Sigma-Aldrich) by IP injection starting immediately post-operative or delayed by 3/7 days (P8/12 start), and injected every other day with sacrifice at 4 weeks post-NBPI (24 h following the last IP injection). The use of littermate controls was rejected due to the risk of treatment cross-contamination either through direct contact or by ingestion from their mother, and [Gly14]-HN was included to mitigate the toxicity that has been reported for Bortezomib^47. Deficits in motor function were confirmed as described above, and measurement of shoulder and elbow range of motion was measured immediately post-sacrifice^16 with blinding to the treatment group. Mouse limbs harvested 4 weeks post-NBPI were positioned on cork for processing of bilateral brachialis muscles for DIC microscopy as described above for measurement of muscle sarcomere length.

[3] = tested on: elbow and shoulder contractures after neonatal brachial plexus injury (NBPI); experiment: Elbow and shoulder contracture severity (range of motion) in mouse model of NBPI; assay type: in vivo, mice; settings: for contracture severity (efficacy): compared to 0.4 mg/kg from P5; for shoulder and elbow contracture severity: 4 weeks after NBPI
Excerpt: All animal procedures were approved by Cincinnati Children's Hospital Medical Center's Institutional Animal Care and Use Committee. Unilateral global (C5-T1) NBPIs were created by surgical extraforaminal nerve root excision in 5-day-old CD-1 mice (Charles River) under general anesthesia. Deficits in motor function were validated post-operatively and again prior to sacrifice to ensure only animals with permanent motor deficits were included for analysis. Elbow and shoulder (where indicated) range of motion were measured immediately post-sacrifice using a validated digital photography technique in order to confirm the presence of elbow flexion and shoulder internal rotation contractures^16. Mice were euthanized by CO2 asphyxiation, except at postnatal day 5 and 12 time points, where isoflurane overdose was utilized.
as §1

| Compound | reduction in the sarcomere elongation caused by NBPI (rescue of brachialis length) [1] [%] | sarcomere length in the brachialis [1] | mortality ([2]; 0.2 mg/kg, P5 to P33) | mortality ([2]; 0.3 mg/kg, P5 to P33, compared to 0.4 mg/kg from P5) | mortality (early death) ([2]; 0.3 mg/kg, P8 to P33) | mortality ([2]; 0.4 mg/kg every other day, P5 to P33) | mortality ([2]; 0.4 mg/kg, P8 to P33, compared to 0.4 mg/kg from P5) | mortality ([2]; 0.4 mg/kg, P12-P33) | contracture severity ([3]; 0.2 mg/kg, P5 to P33) | contracture severity (efficacy) ([3]; 0.3 mg/kg, P5 to P33) | prevention of contractures ([3]; 0.3 mg/kg, P8 to P33) | shoulder and elbow contracture severity ([3]; 0.4 mg/kg every other day IP, P5 to P33, co-administered with [Gly14]-Humanin, vs saline) | contracture severity (efficacy) ([3]; 0.4 mg/kg, P8 to P33) | contracture severity ([3]; 0.4 mg/kg, P12-P33) | prevention of contractures, dose dependence ([3]; 0.2-0.4 mg/kg following NBPI) | shoulder and elbow contracture severity ([3]; [Gly14]-Humanin alone, 1 μg/dose IP every other day) |
| --- | --- | --- | --- | --- | --- | --- | --- | --- | --- | --- | --- | --- | --- | --- | --- | --- |
| CC(C)C[C@H](NC(=O)[C@H](Cc1ccccc1)NC(=O)c1cnccn1)B(O)O [Bortezomib, ([1R)-3-methyl-1-[[(2S)-1-oxo-3-phenyl-2-[(pyrazinylcarbonyl)amino]propyl]amino]butyl]-boronic acid] | 70 | preserves muscle length | eliminated mortality | partially improved mortality | minimal early death | caused mortality, mostly in the first week of treatment | partially improved mortality | eliminated mortality | less severe contractures compared to saline they were not as efficacious as 0.4 mg/kg Bortezomib administered beginning at P5 | maintained efficacy | optimal efficacy in prevention of contractures; also recorded: lack of contractures | significantly reducing shoulder and elbow contracture severity; also recorded: corrected | maintained efficacy | less severe contractures compared to saline they were not as efficacious as 0.4 mg/kg Bortezomib administered beginning at P5 | prevents contractures in a dose-dependent manner | – |
| [Gly^14]-Humanin | – | – | – | – | – | – | – | – | – | – | – | – | – | – | – | no effect alone |
